Results as given in patent US6900245B2, “Pharmaceutical composition comprising crystalline sibutramine methanesulfonate hemihydrate” (priority 2002, dated 2005).
Where a name gives a salt, the structure may show the parent alone. Read-outs that look alike come from different tables or passages of the source.

Legend:
[1] = Solubility in water at pH 5.2 (saturation, HPLC); type: physicochemical; conditions: for solubility: pH 5.2, thermodynamic from solid, pH5.2, saturation, HPLC, based on water-free sibutramine
From the text: Sibutramine methanesulfonate hemihydrate of formula (I) and sibutramine hydrochloride monohydrate were each dissolved to the saturation point at pH 5.2, and then subjected to high performance liquid chromatography (HPLC) to determine the dissolved amount (based on water-free of sibutramine).

[2] = Stability on long term storage at 60° C. (residual rate); type: physicochemical
Procedure: The thermal stability of crystalline methanesulfonate hemihydrate of formula (I) during a long term storage was compared with that of the sibutramine hydrochloride monohydrate of formula (IV). The amounts of unchanged crystalline methanesulfonate hemihydrate of formula (I) and sibutramine hydrochloride monohydrate of formula (IV) at 60° C. after 1, 2, 3 and 6 months are shown in Table 3.

[3] = Non-hygroscopic test: water content by Karl Fischer after storage at 40° C., 75% or 10% relative humidity; type: physicochemical; conditions: for water-content: 40° C.
Procedure: Crystalline sibutramine methanesulfonate hemihydrate of formula (I), sibutramine hydrochloride monohydrate (IV) and anhydrous sibutramine methanesulfonate were each exposed to a high temperature/humidity condition of 40° C. and 75% relative humidity for 1, 2, and 5 days, and the water content thereof was measured by employing Kaal-Fisher moisture analyzer.
A similar series of experiments were conducted at 40° C. and 10% relative humidity, in order to examine whether the respective compounds are stable under a relatively dry condition.

[4] = system: overweight Zuker rats (fa/fa); test: Weight loss effect, 21 days, high-fat food; type: in vivo, rat; conditions: 3 mg/kg everyday for 21 days
Procedure: (§1) 16 each of overweight Zuker rats (fa/fa) and thin Zuker rats (Fa/Fa) were divided into drug-administrating and control groups (8 rats per group), and the weight of each rat was measured prior to the test. A 3 mg/kg dose of crystalline sibutramine methanesulfonate hemihydrate was administrated to each rat of the drug-administrating groups, whiling the vehicle was administrated to those of the control groups, everyday for 21 days. During the period, rats were allowed free access to high-fat food, and the average weights of the drug-administrating and control groups were determined in order to calculate the weight gain and loss.

[5] = system: thin Zuker rats (Fa/Fa); test: Weight loss effect, 21 days, high-fat food; type: in vivo, rat; conditions: 3 mg/kg everyday for 21 days
Procedure: as §1

[6] = Exposure of anhydrous enantiomer salts to room temperature, 75% relative humidity; type: physicochemical
From the text: Further, anhydrous (+)- and (−)-sibutramine methanesulfonate were each placed for 1 day at room temperature under 75% relative humidity.

[7] = background statement on the prior art; cited from earlier work
[8] = pH 5.2; Merck Index, 13th Ed, p1522; cited from earlier work
[9] = 10% relative humidity, storage 1 day
[10] = 10% relative humidity, storage 2 days
[11] = 10% relative humidity, storage 5 days
[12] = 75% relative humidity, storage 1 day
[13] = 75% relative humidity, storage 2 days
[14] = 75% relative humidity, storage 5 days

Compound: CC(C)CC(N(C)C)C1(c2ccc(Cl)cc2)CCC1 (racemic) [sibutramine methanesulfonate hemihydrate]
- solubility in water compared with sibutramine hydrochloride monohydrate of formula (IV) ([1]; pH 5.2): markedly higher solubility in water
- solubility [1]: 2500 mg/mL
- Residual rate after 1 month [2]: 1.001
- Residual rate after 2 months [2]: 0.999
- Residual rate after 3 months [2]: 0.999
- Residual rate after 6 months [2]: 1.000
- Initial (unchanged amount) [2]: 1.000
- stability compared with sibutramine hydrochloride monohydrate ([2]; up to 6 months): as stable as sibutramine hydrochloride monohydrate
- water-content [3, 9]: 2.27 % by weight
- water-content [3, 10]: 2.25 % by weight
- water-content [3, 11]: 2.26 % by weight
- water-content [3, 12]: 2.27 % by weight
- water-content [3, 13]: 2.30 % by weight
- water-content [3, 14]: 2.30 % by weight
- release of the water of crystallization ([3]; dry condition (40° C., 10% RH)): does not release the water of crystallization
- hygroscopicity ([3]; high humidity condition (40° C., 75% RH)): non-hygroscopic
- weight loss effect as compared with the control group ([4]; Zuker rats, sentence covers overweight and thin rats): remarkable weight loss effect
- The average weight after test (B) ([4]; overweight Zuker rats): 455.6 g
- Weight gain (B − A) ([4]; overweight Zuker rats): 123.4 g
- Weight loss effect ((Gain in weight of the control group) − (Gain in weight of the drug-administrating group)) ([4]; overweight Zuker rats): 29.6 g
- The average weight after test (B) [5]: 303.4 g
- Weight gain (B − A) [5]: 58.4 g
- Weight loss effect ((Gain in weight of the control group) − (Gain in weight of the drug-administrating group)) [5]: 20.4 g

Compound: CC(C)CC(N(C)C)C1(c2ccc(Cl)cc2)CCC1.CS(=O)(=O)O (single isomer, unassigned; (+)) [(+)-sibutramine methanesulfonate]
- state after 1 day [6]: transparent liquid

Compound: CC(C)CC(N(C)C)C1(c2ccc(Cl)cc2)CCC1.CS(=O)(=O)O (single isomer, unassigned; (-)) [(−)-sibutramine methanesulfonate]
- state after 1 day [6]: transparent liquid

Compound: CC(C)CC(N(C)C)C1(c2ccc(Cl)cc2)CCC1.Cl (stereo not shown) [anhydrous sibutramine hydrochloride]
- hygroscopicity [7]: highly hygroscopic

Compound: CC(C)CC(N(C)C)C1(c2ccc(Cl)cc2)CCC1.CS(=O)(=O)O (stereo not shown) [anhydrous sibutramine methanesulfonate]
- water-content [3, 9]: 0.60 % by weight
- water-content [3, 10]: 0.71 % by weight
- water-content [3, 11]: 0.70 % by weight
- water-content [3, 12]: 0.60 % by weight
- water-content [3, 13]: 2.20 % by weight
- water-content [3, 14]: 2.25 % by weight

Compound: CC(C)CC(N(C)C)C1(c2ccc(Cl)cc2)CCC1 (stereo not shown) [sibutramine hydrochloride monohydrate, reference compound]
- solubility [1]: 2.8 mg/mL
- Residual rate after 1 month [2]: 1.000
- Residual rate after 2 months [2]: 0.999
- Residual rate after 3 months [2]: 0.999
- Residual rate after 6 months [2]: 0.992
- Initial (unchanged amount) [2]: 1.000
- water-content [3, 9]: 5.40 % by weight
- water-content [3, 10]: 5.36 % by weight
- water-content [3, 11]: 5.36 % by weight
- water-content [3, 12]: 5.40 % by weight
- water-content [3, 13]: 5.45 % by weight
- water-content [3, 14]: 5.48 % by weight
- hygroscopicity [7]: non-hygroscopic
- solubility in water [8]: 2.9 mg/mL
